# ChEMBL document CHEMBL3885861, “Open TG-GATES”
# Species: Rattus norvegicus
# Experiment: Open TG-GATES - Regimen: Single
# Assay type: toxicity, organism-based, Sprague-Dawley
# Parameters: regimen Single, gender Male, age 6 weeks
# Conditions: in vivo, po, route gavage; for gamma-GTP / ALP / ALT / AST / BUN / CRE / DBIL / GLC / IP / K / Na / PL / RALB / TBIL / TC / TG / TP / LDH / Ca: tissue Plasma; for APTT / Bas / Eos / Fbg / Hb / Ht / Lym / MCH / MCHC / MCV / Mono / Neu / PT / Plat / RBC / Ret / WBC: tissue Blood; for KIDNEY_L / KIDNEY_R / KIDNEY_TOTAL: tissue Kidney; for LIVER: tissue Liver
# [1] = 300 mg/kg, 3 h, dose level Middle
# [2] = 300 mg/kg, 6 h, dose level Middle
# [3] = 300 mg/kg, 9 h, dose level Middle
# [4] = 300 mg/kg, 24 h, dose level Middle
# [5] = 1000 mg/kg, 3 h, dose level High
# [6] = 1000 mg/kg, 6 h, dose level High
# [7] = 1000 mg/kg, 9 h, dose level High
# [8] = 1000 mg/kg, 24 h, dose level High
smiles,measurement,setting,value
C[C@H](CS)C(=O)N1CCC[C@H]1C(=O)O [CAPTOPRIL],gamma-GTP,"100 mg/kg, 24 h, dose level Low",1 IU/L
same,TERMINAL_BW,[1],224.2 g
same,APTT,[1],16.3 s
same,Bas,[1],0%
same,Eos,[1],0.8%
same,Fbg,[1],204.8 mg/dL
same,Hb,[1],13.2 g/dL
same,Ht,[1],39.8%
same,Lym,[1],83.6%
same,MCH,[1],21.3 pg
same,MCHC,[1],33.2%
same,MCV,[1],64.1 fL
same,Mono,[1],5%
same,Neu,[1],10%
same,PT,[1],11.6 s
same,Plat,[1],117.4 x10_4/uL
same,RBC,[1],620.8 x10_4/ul
same,Ret,[1],6.6%
same,WBC,[1],125.4 x10_2/uL
same,KIDNEY_L,[1],1 g
same,KIDNEY_R,[1],1 g
same,KIDNEY_TOTAL,[1],2 g
same,LIVER,[1],11.2 g
same,ALP,[1],845.8 IU/L
same,ALT,[1],33.4 IU/L
same,AST,[1],61.8 IU/L
same,BUN,[1],17 mg/dL
same,CRE,[1],0.4 mg/dL
same,DBIL,[1],0.006 mg/dL
same,GLC,[1],209.4 mg/dL
same,IP,[1],9.3 mg/dL
same,K,[1],5 meq/L
same,Na,[1],138 meq/L
same,PL,[1],130 mg/dL
same,RALB,[1],3.7 g/dL
same,TBIL,[1],0.4 mg/dL
same,TC,[1],70.8 mg/dL
same,TG,[1],68.6 mg/dL
same,TP,[1],5.4 g/dL
same,gamma-GTP,[1],1.4 IU/L
same,TERMINAL_BW,[2],221.9 g
same,APTT,[2],16.4 s
same,Bas,[2],0%
same,Eos,[2],1.2%
same,Hb,[2],12.9 g/dL
same,Ht,[2],39%
same,Lym,[2],80%
same,MCH,[2],21 pg
same,MCHC,[2],33%
same,MCV,[2],63.5 fL
same,Mono,[2],6.6%
same,Neu,[2],12.2%
same,PT,[2],12.1 s
same,Plat,[2],116.7 x10_4/uL
same,RBC,[2],615 x10_4/ul
same,Ret,[2],8.2%
same,WBC,[2],113.8 x10_2/uL
same,KIDNEY_L,[2],1 g
same,KIDNEY_R,[2],1 g
same,KIDNEY_TOTAL,[2],2 g
same,ALP,[2],734.8 IU/L
same,ALT,[2],32 IU/L
same,AST,[2],55 IU/L
same,BUN,[2],21.8 mg/dL
same,CRE,[2],0.6 mg/dL
same,DBIL,[2],0.026 mg/dL
same,GLC,[2],197.4 mg/dL
same,K,[2],4.8 meq/L
same,LDH,[2],92.4 IU/L
same,Na,[2],139 meq/L
same,PL,[2],133.6 mg/dL
same,RALB,[2],3.5 g/dL
same,TBIL,[2],0.5 mg/dL
same,TC,[2],73.6 mg/dL
same,TG,[2],50.4 mg/dL
same,TP,[2],5.1 g/dL
same,gamma-GTP,[2],2 IU/L
same,TERMINAL_BW,[3],222.6 g
same,APTT,[3],15.9 s
same,Bas,[3],0%
same,Eos,[3],0.8%
same,Fbg,[3],204 mg/dL
same,Hb,[3],13 g/dL
same,Ht,[3],39.5%
same,Lym,[3],79.2%
same,MCH,[3],21.4 pg
same,MCHC,[3],32.8%
same,MCV,[3],65.4 fL
same,Mono,[3],4.8%
same,Neu,[3],15.2%
same,PT,[3],12.3 s
same,RBC,[3],604.2 x10_4/ul
same,Ret,[3],8.6%
same,KIDNEY_L,[3],1 g
same,KIDNEY_R,[3],1 g
same,KIDNEY_TOTAL,[3],2 g
same,LIVER,[3],9.4 g
same,ALP,[3],667 IU/L
same,ALT,[3],35.4 IU/L
same,AST,[3],55.8 IU/L
same,BUN,[3],16.8 mg/dL
same,CRE,[3],0.4 mg/dL
same,DBIL,[3],0.078 mg/dL
same,GLC,[3],208.6 mg/dL
same,K,[3],5 meq/L
same,LDH,[3],72.6 IU/L
same,Na,[3],139.6 meq/L
same,PL,[3],139.6 mg/dL
same,RALB,[3],3.7 g/dL
same,TBIL,[3],0.3 mg/dL
same,TC,[3],78.8 mg/dL
same,TG,[3],49 mg/dL
same,TP,[3],5.3 g/dL
same,gamma-GTP,[3],2 IU/L
same,TERMINAL_BW,[4],235.1 g
same,APTT,[4],16.5 s
same,Bas,[4],0%
same,Eos,[4],0.8%
same,Hb,[4],13.2 g/dL
same,Ht,[4],39.8%
same,Lym,[4],83.4%
same,MCH,[4],21.5 pg
same,MCHC,[4],33.2%
same,MCV,[4],64.8 fL
same,Mono,[4],5.2%
same,Neu,[4],10%
same,PT,[4],11.4 s
same,Plat,[4],118.6 x10_4/uL
same,RBC,[4],613.8 x10_4/ul
same,Ret,[4],8.6%
same,KIDNEY_L,[4],1 g
same,KIDNEY_R,[4],1 g
same,KIDNEY_TOTAL,[4],2.1 g
same,LIVER,[4],11.6 g
same,ALT,[4],37.6 IU/L
same,AST,[4],64.8 IU/L
same,BUN,[4],17.4 mg/dL
same,CRE,[4],0.6 mg/dL
same,Ca,[4],11.3 mg/dL
same,DBIL,[4],0.02 mg/dL
same,GLC,[4],189.6 mg/dL
same,IP,[4],8.5 mg/dL
same,K,[4],4.9 meq/L
same,LDH,[4],115.6 IU/L
same,Na,[4],138.8 meq/L
same,PL,[4],150.6 mg/dL
same,RALB,[4],4.1 g/dL
same,TBIL,[4],0.3 mg/dL
same,TC,[4],79.2 mg/dL
same,TG,[4],86 mg/dL
same,TP,[4],5.9 g/dL
same,gamma-GTP,[4],0.6 IU/L
same,TERMINAL_BW,[5],222.3 g
same,APTT,[5],16 s
same,Bas,[5],0%
same,Eos,[5],1%
same,Fbg,[5],204.8 mg/dL
same,Hb,[5],13.6 g/dL
same,Ht,[5],40.9%
same,Lym,[5],76.8%
same,MCH,[5],21.8 pg
same,MCHC,[5],33.1%
same,MCV,[5],65.9 fL
same,Mono,[5],5.6%
same,Neu,[5],16.4%
same,PT,[5],12.1 s
same,Plat,[5],118.1 x10_4/uL
same,RBC,[5],621.6 x10_4/ul
same,Ret,[5],8.4%
same,KIDNEY_L,[5],1 g
same,KIDNEY_R,[5],1 g
same,KIDNEY_TOTAL,[5],2.1 g
same,ALP,[5],661.2 IU/L
same,ALT,[5],37 IU/L
same,AST,[5],61 IU/L
same,BUN,[5],17.4 mg/dL
same,CRE,[5],0.5 mg/dL
same,DBIL,[5],0.006 mg/dL
same,GLC,[5],213 mg/dL
same,IP,[5],9.8 mg/dL
same,K,[5],5 meq/L
same,Na,[5],137.8 meq/L
same,PL,[5],133.6 mg/dL
same,RALB,[5],3.5 g/dL
same,TBIL,[5],0.5 mg/dL
same,TC,[5],79.4 mg/dL
same,TG,[5],53.8 mg/dL
same,TP,[5],5.5 g/dL
same,gamma-GTP,[5],1.4 IU/L
same,TERMINAL_BW,[6],215.6 g
same,APTT,[6],16.5 s
same,Bas,[6],0%
same,Eos,[6],1%
same,Fbg,[6],205.6 mg/dL
same,Hb,[6],13.4 g/dL
same,Ht,[6],40.4%
same,Lym,[6],79.6%
same,MCH,[6],21.1 pg
same,MCHC,[6],33.1%
same,MCV,[6],63.9 fL
same,Mono,[6],5.2%
same,Neu,[6],14%
same,PT,[6],12.6 s
same,RBC,[6],632.8 x10_4/ul
same,Ret,[6],8.2%
same,WBC,[6],110.9 x10_2/uL
same,KIDNEY_L,[6],1 g
same,KIDNEY_R,[6],1 g
same,KIDNEY_TOTAL,[6],2 g
same,LIVER,[6],9.6 g
same,ALP,[6],736.6 IU/L
same,ALT,[6],32.8 IU/L
same,AST,[6],57.6 IU/L
same,BUN,[6],21.2 mg/dL
same,CRE,[6],0.6 mg/dL
same,DBIL,[6],0.02 mg/dL
same,GLC,[6],211.4 mg/dL
same,IP,[6],9.8 mg/dL
same,K,[6],4.7 meq/L
same,LDH,[6],110.4 IU/L
same,Na,[6],139.6 meq/L
same,PL,[6],112.8 mg/dL
same,RALB,[6],3.6 g/dL
same,TBIL,[6],0.5 mg/dL
same,TC,[6],62.6 mg/dL
same,TG,[6],48.4 mg/dL
same,TP,[6],5.4 g/dL
same,gamma-GTP,[6],1.6 IU/L
same,TERMINAL_BW,[7],220.7 g
same,APTT,[7],16.6 s
same,Bas,[7],0%
same,Eos,[7],1%
same,Fbg,[7],201.2 mg/dL
same,Hb,[7],12.7 g/dL
same,Ht,[7],38.9%
same,Lym,[7],77.6%
same,MCH,[7],20.8 pg
same,MCHC,[7],32.7%
same,MCV,[7],63.4 fL
same,Mono,[7],4.8%
same,Neu,[7],16.6%
same,PT,[7],12.4 s
same,Plat,[7],113.6 x10_4/uL
same,RBC,[7],613.4 x10_4/ul
same,Ret,[7],8.7%
same,KIDNEY_L,[7],1 g
same,KIDNEY_R,[7],1 g
same,KIDNEY_TOTAL,[7],2 g
same,LIVER,[7],9.1 g
same,ALP,[7],691.6 IU/L
same,ALT,[7],36 IU/L
same,AST,[7],59.4 IU/L
same,BUN,[7],24.4 mg/dL
same,CRE,[7],0.4 mg/dL
same,DBIL,[7],0.08 mg/dL
same,GLC,[7],192.2 mg/dL
same,IP,[7],11 mg/dL
same,K,[7],5.3 meq/L
same,LDH,[7],76 IU/L
same,Na,[7],140 meq/L
same,PL,[7],118.2 mg/dL
same,RALB,[7],3.4 g/dL
same,TBIL,[7],0.5 mg/dL
same,TC,[7],68.4 mg/dL
same,TG,[7],27.4 mg/dL
same,TP,[7],5.1 g/dL
same,gamma-GTP,[7],1.8 IU/L
same,TERMINAL_BW,[8],237.2 g
same,APTT,[8],16.4 s
same,Bas,[8],0%
same,Eos,[8],1%
same,Hb,[8],12.8 g/dL
same,Ht,[8],38.5%
same,Lym,[8],79%
same,MCH,[8],21.7 pg
same,MCHC,[8],33.2%
same,MCV,[8],65.3 fL
same,Mono,[8],5.2%
same,Neu,[8],14.8%
same,PT,[8],11.3 s
same,Plat,[8],110.3 x10_4/uL
same,RBC,[8],589.4 x10_4/ul
same,Ret,[8],8.4%
same,WBC,[8],95.8 x10_2/uL
same,KIDNEY_L,[8],1.1 g
same,KIDNEY_R,[8],1.1 g
same,KIDNEY_TOTAL,[8],2.1 g
same,LIVER,[8],11.8 g
same,ALP,[8],971.2 IU/L
same,ALT,[8],39.8 IU/L
same,AST,[8],66.4 IU/L
same,BUN,[8],16.8 mg/dL
same,CRE,[8],0.6 mg/dL
same,Ca,[8],11.1 mg/dL
same,DBIL,[8],0.058 mg/dL
same,GLC,[8],200.4 mg/dL
same,IP,[8],8.6 mg/dL
same,K,[8],4.5 meq/L
same,LDH,[8],100.4 IU/L
same,Na,[8],137.8 meq/L
same,PL,[8],142 mg/dL
same,RALB,[8],3.9 g/dL
same,TBIL,[8],0.3 mg/dL
same,TC,[8],81.4 mg/dL
same,TP,[8],5.7 g/dL
same,gamma-GTP,[8],1.2 IU/L
